Measurements as given in patent publication EP3964511A1, “BIOORTHOGONAL CHOLESTEROL PROBE AND USES THEREOF” (Universidad del País Vasco/Euskal Herriko Unibertsitatea, priority 2020, dated 2022).

Legend:
[1] = In vitro laurdan generalized polarization (GP) in LUVs; type: physicochemical; conditions: POPC LUVs with 10% sterol (labeled adduct 90%:8%:2%), compared with chol
Experimental: Large unilamellar vesicles (LUV) composed of POPC:chol (90%:10%), POPC:chol-N3 (90%:10%) or POPC/chol-N3/chol-N3-AF 647-DBCO (90%:8%:2%) were prepared following the extrusion method described by Cebecauer M. et al. (Membrane Lipid Nanodomains. Chem Rev, 2018). Laurdan was added in the organic phase before solvent evaporation. Laurdan labeled liposomes at a concentration of 30 µM were kept under continuous stirring, and the determination of GP profiles at different temperatures was performed. All fluorescence measurements were made using an SLM Aminco series 2 (Spectronic Instruments, Rochester, NY) spectrofluorimeter as previously described (Sheng R. et al. Nat Commun 3, 1249, 2012). To quantify changes in the Laurdan emission spectrum, generalized polarization (GP) values were calculated as follow: GP = (IB-IR)/(IB+IR), where IB (at 440 nm) and IR (at 490 nm) correspond to the intensities at the blue and red edges of the emission maxima, respectively (Bernardino de la Serna J et al., J Biol Chem 279, 40715-40722, 2004 and Sezgin E et al., Nat Rev Mol Cell Biol 18, 361-374, 2017).

HeLa cells = test: Competition assay of cellular uptake against natural chol; type: cell-based, Human; conditions: probe fixed at 5 µM, chol 0-1 mM, 1 h co-incubation; result stated at 500 µM chol
Experimental: A competition assay was designed to test chol-N3 and fluorescently pre-labeled chol-N3 uptake by cells. HeLa cells were seeded onto coverslips in DMEM supplemented with 10% FBS, and co-incubated with a fixed concentration of chol-N3 (5 µM) or with chol-N3 (5 µM) labeled with 10 µM AF 488-DBCO and an increasing concentration of natural chol (ranging from 0 to 1 mM) added externally to the cells. After 1h co-incubation of cells with the mixture, cells were stained in vivo with 25 µM AF 488-DBCO for 60 min, counterstained with DAPI, fixed, and imaged using a ZEISS apotome. Alternaltively, HeLa cells were treated with 5 µM Bodipy-chol in DMEM supplemented with 10% FBS and co-incubated with increasing concentration of natural chol (0-1mM) for 1h. Cells were fixed, and counterstained with DAPI.
Human cervix adenocarcinoma HeLa cells and human bone marrow neuroblast SH-SY5Y cells were obtained from ATCC. HeLa cells were maintained in DMEM (Dulbecco's modified Eagle's medium) supplemented with 10% FBS, 2 mM Glutamax, 100 units/ml penicillin, and 100 µg/ml streptomycin (Life Technologies) at 37 °C with 5% CO2. SH-SY5Y cells were maintained in DMEM/F12 (F12 and Dulbecco's modified Eagle's medium) supplemented with 10% FBS and 1% penicillin and streptomycin. (Life Technologies) at 37°C with 5% CO2.

CC(CCCN=[N+]=[N-])C1CCC2C3CC=C4CC(O)CCC4(C)C3CCC12C (centres unmarked) [chol-N3, 17-(5-azidopentan-2-yl)-10,13-dimethyl-2,3,4,7,8,9,10,11,12,13,14,15,16,17-tetradecahydro-1H-cyclopenta[a]phenanthren-3-ol]
membrane order (laurdan generalized polarization, GP) versus temperature [1]: same membrane order behavior irrespective of the chol analog used
uptake in the presence of increasing extracellular chol (HeLa cells): virtually abolished
